Patent US9724340B2, “Antitussive compositions and methods” (Attenua, Inc., priority 2015, dated 2017)

System: conscious guinea pigs
Assay: Citric acid inhalation cough model in conscious guinea pigs
Format: in vivo, guinea pig
Details: 30 min before citric acid aerosols 0.01M-0.3M
Procedure: Cough suppression was evaluated in conscious guinea pigs using a citric acid inhalation model (Smith et al., 2012). Guinea pigs were pretreated intraperitoneally with drug vehicle (saline), α7 PHA543613 (10 mg/kg) (FIG. 3), or (2S,3R)—N-(2-(3-pyridinyl)methyl)-1-azabicyclo[2.2.2]oct-3-yl)benzofuran-2-carboxamide (30 mg/kg) (FIG. 4). Respiration and cough reflexes were measured using a Buxco inhalation chamber connected to a Biopac data acquisition system. Thirty minutes after vehicle or drug administration, animals were challenged in sequence with ascending aerosol concentrations of citric acid (0.01M-0.3M), with each aerosol delivered for 5 minutes and with 5 minutes interval in between challenges. The cumulative coughs evoked were quantified and results are presented as a mean±standard error of the mean (SEM) of n experiments, where n refers to a single animal). Studies were performed using a nonpaired parallel group design. Differences amongst group means were evaluated by t-test or ANOVA, with a p<0.05 considered statistically significant which is represented by an asterisk (*) in FIG. 3 and FIG. 4.

SMILES	cumulative citric acid evoked coughs (in words) (30 mg/kg intraperitoneally, FIG. 4)	cumulative citric acid evoked coughs (in words) (10 mg/kg intraperitoneally, FIG. 3)
O=C(N[C@@H]1C2CCN(CC2)[C@H]1Cc1cccnc1)c1cc2ccccc2o1 [(2S,3R)—N-(2-((3-pyridinyl)methyl)-1-azabicyclo[2.2.2]oct-3-yl)benzofuran-2-carboxamide]	markedly inhibited citric acid evoked coughs	
O=C(N[C@H]1CN2CCC1CC2)c1cc2ccoc2cn1 [PHA543613]		markedly inhibited citric acid evoked coughs
